Data taken from patent US20130316946A1, “EXTENDED RECOMBINANT POLYPEPTIDE-MODIFIED C-PEPTIDE” (Cebix, Inc., priority 2012, published 2013).

Tests used:
[1] = in vivo; cited from earlier work
[2] = Pharmacokinetics of unmodified C-peptide in beagle dogs after a single S.C. dose; assay type: in vivo
Experimental: A pharmacokinetic (PK) study was conducted to determine the C-peptide PK profile with unmodified C-peptide in beagle dogs.
Methods: Two male and one female dog received S.C. the unmodified synthetic human C-peptide (0.5 mg/kg; 0.025 mL/kg) formulated in phosphate buffered saline (20 mg/mL). Dogs were bled by venipuncture and blood samples were collected at predetermined time points over 14 days. Plasma samples were obtained after centrifugation of the blood (3,000 rpm for 10 minutes) and stored at −80° C. until analysis. A CRO with Good Laboratory Practice (GLP) capabilities (MicroConstants, Inc.; San Diego, Calif.) performed the bioanalytical work. Plasma levels of C-peptide were measured by an enzyme-linked immunosorbant assay (ELISA) technique based on a commercial kit for human C-peptide determination (Mercodia; catalog number 10-1136-01) using the manufacturer's instructions. Results were expressed as C-peptide concentrations. For the PK analysis, the below quantitation level (BQL) was treated as zero and nominal time points were used for all calculations. PK parameters were determined by standard model independent methods based on the individual plasma concentration-time data for each animal using model 200 in WinNonlin Professional 5.2.1 (Pharsight Corp., Mountain View, Calif.).

[3] = Stability of C-peptide-XTEN in rat kidney lysate; assay type: in vitro ADME; settings: 37° C., over 3 days, SDS PAGE / Western
Experimental: A fusion protein […] followed by detection using Western analysis and detection with antibodies against C-peptide. […] The in vivo stability of the fusion protein is tested in plasma samples wherein the C-peptide_AE864 is immunoprecipitated and analyzed by SDS PAGE as described above.

[4] = Stability of C-peptide-XTEN in monkey plasma; assay type: in vitro ADME; settings: 37° C., over 7 days, SDS PAGE / Western
Experimental: A fusion protein containing XTEN_AE864 fused to the N-terminus of C-peptide is incubated in monkey plasma and rat kidney lysate for up to 7 days at 37° C. Samples are withdrawn at time 0, Day 1 and Day 7 and analyzed by SDS PAGE followed by detection using Western analysis and detection with antibodies against C-peptide. […] The in vivo stability of the fusion protein is tested in plasma samples wherein the C-peptide_AE864 is immunoprecipitated and analyzed by SDS PAGE as described above.

## Glargine insulin
[1]
  duration of activity: 24 h
  peak time of effect: no peak effect

## Aspart
[1]
  peak time of effect: around 30 minutes

## Lispro
[1]
  peak time of effect: around 30 minutes

## CC(C)C[C@H](NC(=O)[C@H](C)NC(=O)[C@H](CC(C)C)NC(=O)[C@@H]1CCCN1C(=O)[C@H](CCC(N)=O)NC(=O)[C@H](CC(C)C)NC(=O)[C@H](CO)NC(=O)CNC(=O)[C@H](C)NC(=O)CNC(=O)[C@@H]1CCCN1C(=O)CNC(=O)CNC(=O)CNC(=O)[C@H](CC(C)C)NC(=O)[C@H](CCC(=O)O)NC(=O)[C@@H](NC(=O)[C@H](CCC(N)=O)NC(=O)CNC(=O)[C@@H](NC(=O)[C@H](CCC(N)=O)NC(=O)[C@H](CC(C)C)NC(=O)[C@H](CC(=O)O)NC(=O)[C@H](CCC(=O)O)NC(=O)[C@H](C)NC(=O)[C@@H](N)CCC(=O)O)C(C)C)C(C)C)C(=O)N[C@@H](CCC(=O)O)C(=O)NCC(=O)N[C@@H](CO)C(=O)N[C@@H](CC(C)C)C(=O)N[C@@H](CCC(N)=O)C(=O)O [CP-AQ, human C-peptide]
[2]; dog, in vivo, sc
  circulating levels of C-peptide below quantitation level (BQL): BQL within half a day
[2]; dogs, single S.C. dose 0.5 mg/kg
  tolerability (clinical abnormalities): well tolerated

## Glulisine
[1]
  peak time of effect: around 30 minutes

## Regular insulin
[1]
  onset of action: 30 to 60 min

B1: AE864: XTEN polypeptide of 864 amino acid residues, SEQ ID NO:70 (protein)
chain: GSPAGSPTSTEEGTSESATPESGPGTSTEPSEGSAPGSPAGSPTSTEEGTSTEPSEGSAPGTSTEPSEGSAPGTSESATPESGPGSEPATSGSETPGSEPATSGSETPGSPAGSPTSTEEGTSESATPESGPGTSTEPSEGSAPGTSTEPSEGSAPGSPAGSPTSTEEGTSTEPSEGSAPGTSTEPSEGSAPGTSESATPESGPGTSTEPSEGSAPGTSESATPESGPGSEPATSGSETPGTSTEPSEGSAPGTSTEPSEGSAPGTSESATPESGPGTSESATPESGPGSPAGSPTSTEEGTSESATPESGPGSEPATSGSETPGTSESATPESGPGTSTEPSEGSAPGTSTEPSEGSAPGTSTEPSEGSAPGTSTEPSEGSAPGTSTEPSEGSAPGTSTEPSEGSAPGSPAGSPTSTEEGTSTEPSEGSAPGTSESATPESGPGSEPATSGSETPGTSESATPESGPGSEPATSGSETPGTSESATPESGPGTSTEPSEGSAPGTSESATPESGPGSPAGSPTSTEEGSPAGSPTSTEEGSPAGSPTSTEEGTSESATPESGPGTSTEPSEGSAPGTSESATPESGPGSEPATSGSETPGTSESATPESGPGSEPATSGSETPGTSESATPESGPGTSTEPSEGSAPGSPAGSPTSTEEGTSESATPESGPGSEPATSGSETPGTSESATPESGPGSPAGSPTSTEEGSPAGSPTSTEEGTSTEPSEGSAPGTSESATPESGPGTSESATPESGPGTSESATPESGPGSEPATSGSETPGSEPATSGSETPGSPAGSPTSTEEGTSTEPSEGSAPGTSTEPSEGSAPGSEPATSGSETPGTSESATPESGPGTSTEPSEGSAP
modifications: AE864 XTEN polypeptide
[3]
  degradation in rat kidney lysate: rapidly degraded
[4]
  degradation in monkey plasma: negligible signs of degradation
